Assay results: patent EP3710011B1, “PENTACYCLIC TRITERPENES FOR THE TREATMENT OF AN ORAL DISEASE” (PIERRE FABRE MEDICAMENT, priority 2017, dated 2019)
Read-outs that look alike come from different tables or passages of the source.

Assays:
[1] = system: kératinocytes humains oraux; assay: ELISA of IL-8, hBD-2 and MMP-9 secreted by oral keratinocytes stimulated with IL-17, IL-22 and TNF-alpha; format: cell-based; details: 48h stimulation; for inhibition at 10 µM: Keratinocyte
Experimental: (§1) • L'échantillon « Extrait CCV » est obtenu tel que décrit dans l'exemple 1 et est dilué dans du DMSO 0,4% afin d'obtenir une concentration en célastrol de 137 µg/mL; trois doses sont testées, à savoir 10, 30 et 100 ng/mL. • L'échantillon « Célastrol » 150 µg/mL dans du DMSO 0,4 %; trois doses sont testées à savoir 10, 30 et 100 ng/mL.
(§2) Les échantillons contrôles sont les suivants : • L'échantillon témoin négatif « DMSO » (DMSO à 0,4%); et • L'échantillon témoin positif « Inhibiteur JAK » comprenant 10 µM d'inhibiteur JAK (JAK Inhibitor I - CAS 457081-03-7 - Calbiochem).
(§3) La lignée cellulaire utilisée est une lignée de kératinocytes humains oraux (CliniSciences ref.2610-SC). Cette lignée est cultivée à 37 °C, sous atmosphère 5 % de CO2 dans un milieu adapté (Oral Keratinocyte medium OKM supplémenté avec de la pénicilline 100 U/mL et de la streptomycine 100 µg/mL).
(§4) Les kératinocytes humains oraux sont ensemencés dans des puits de plaques à 24 puits (75 000 cellules/puits) et cultivés pendant 24h. Le milieu de culture est alors remplacé par du milieu frais contenant les échantillons à tester, et les cellules sont à nouveau incubées pendant 24h. L'opération est renouvelée à nouveau en présence d'un mix de cytokines stimulatrice des kératinocytes : IL-17, IL-22 et TNF-alpha à 3 ng/ml chacune. Le temps de culture est de 24h pour les expériences de RT-pPCR et de 48 pour les expériences d'ELISA. Les cellules sont ensuite lavées dans une solution de PBS et congelées immédiatement à - 80 °C.
(§5) Les expériences ont été réalisées en triplicats.
La quantité d'IL8, hBD-2 (DEBF4A) et de MMP-9 sécrétée par les kératinocytes dans le milieu de culture après 48h de stimulation est mesurée par ELISA.

[2] = system: Staphylococcus aureus CIP4.83; assay: Determination of minimal inhibitory (CMI) and minimal bactericidal (CMB) concentration, liquid micro-method then subculture on agar; format: cell-based; details: for CMB / CMI / CMB (DMSO dilution) / CMI (DMSO dilution): S. aureus; for CMB / CMI: purified sample dissolved in DMSO; for CMB (DMSO dilution): real dilution (DMSO) at the CMB point; for CMI (DMSO dilution): real dilution (DMSO) at the CMI point
Experimental: • L'échantillon « Extrait CCV » obtenu tel que dans l'exemple 1 est titré à 150 µg/ml en Célastrol, 40 µg/ml en Tingénine A et 20 µg/ml en Tingénine B, dissouts dans du pentylène glycol 100 %. Pour les besoins du dosage, il est dilué à 2 % dans de l'eau pour préparation injectable (PPI). • L'échantillon « Tingénine A » est titré à 150 µg/ml dans du DMSO 10 %. • L'échantillon « Tingénine B » est titré à 150 µg/ml du DMSO 10 %. • L'échantillon « Célastrol » est titré à 150 µ/ml dans du DMSO 10 %.
Les souches bactériennes utilisées sont : • Staphylococcus aureus CIP4.83 entretenue sur milieu gelosé Trypticase-soja à 36 +/- 1 °C. • Fusobacterium nucleatum CIP101130T entretenue sur milieu gélosé Columbia + 5 % de sang de mouton à 36+/-1 °C en anaérobiose
La détermination de la Concentration Minimale Inhibitrice (CMI) est réalisée par micro-méthode en milieu liquide. 100 µL de milieu de culture Muller Hinton sont déposés dans chaque puits d'une microplaque de 96 puits stérile. 100 µL de l'échantillon à tester sont déposés dans la colonne 1 de la microplaque (deux puits par extrait à tester). Des dilutions de raison 2 sont réalisées de la façon suivante : 100 µL sont prélevés dans les puits de la colonne 1 puis ajouté et mélangés aux puits de la colonne 2. Cette opération est répétée jusqu'à la colonne 10. Les 100 µL prélevés dans la colonne 10 sont éliminés. La colonne 11 est utilisée comme témoin positif (milieu de culture + bactérie à tester). La colonne 12 est utilisée comme témoin négatif (milieu de culture seul). La microplaque est ensemencée (hors témoin négatif de croissance). Après une incubation de 16 à 24 h l'observation de la croissance à l'œil nu permet de déterminer une CMI (la plus faible concentration en extrait qui inhibe la croissance).
La détermination de la Concentration Minimale Bactéricide (CMB) est réalisée par repiquage des microplaques CMI sur un milieu Muller Hinton gélosé. Après incubation, la CMB correspond à la plus faible concentration de l'extrait testé pour laquelle on observe une absence de croissance.
Dans les tableaux 1 et 2 présentant les résultats comparatifs des différents échantillons testés sont indiqués : • 1. Pour l'extrait CCV, les CMI/CMB sont des concentrations équivalentes en célastrol. En effet, cet extrait est une solution qui contient majoritairement du Célastrol (Célastrol > 50 %, Tingénine A > 5 % et Tingénine B > 5 %). L'extrait est dissout dans du Pentylène Glycol (PG), on a le % (P/P) correspondant à la dilution réelle au point de CMI ou de CMB, et on en déduit la concentration équivalente en Célastrol grâce au titre (150 µg/ml) quantifié par HPLC. • 2. Pour les échantillons de Célastrol, de Tingénine A et de Tingénine B purifiés et dissouts dans le DMSO, le % mentionné correspond à la dilution réelle au point de CMI ou de CMB. • 3. Pour les solvants de contrôle DMSO et Pentylène Glycol (PG) testés en parallèle, le % correspond à la dilution réelle au point de CMI ou de CMB.

[3] = system: kératinocytes humains oraux; assay: RT-qPCR of inflammatory marker expression in oral keratinocytes stimulated with IL-17, IL-22 and TNF-alpha; format: cell-based
Experimental: as §1, §2, §3, §4, §5
L'expression des marqueurs IL-8, CXCL1, DEBF4A, S100A7, IL-36 gamma et MMP9, par les kératinocytes est déterminée par RT-qPCR comme décrit dans la littérature avec des kits de Reverse transcriptase (Roche) et de PCR quantitative. Un témoin positif de PCR (GAPDH), exprimé constitutivement, est réalisé en parallèle afin de normaliser les résultats obtenus.

[4] = system: lymphocytes T CD4+; assay: Anti-TH17 activity: cytokines secreted by CD4+ T lymphocytes activated with anti-CD3/anti-CD28 (Multiplex Immunoassays); format: cell-based, humaines; details: 2 µM
Experimental: L'échantillon « Extrait CCV » est obtenu tel que dans l'exemple 1 et est dilué dans 0,4 % DMSO afin d'obtenir les différentes concentrations finales suivantes après ajout dans les puits : • Extrait 2 (titré en Célastrol à 9 ng/ml); • Extrait 3 (titré en Célastrol à 30 ng/ml); et • Extrait 4 (titré en Célastrol à 90 ng/ml).
Les échantillons contrôles sont les suivants : • Contrôle négatif 1 (solution DMSO à 0,4 %); et • Contrôle positif 5 : dexaméthasone (Dexa) à 2 µM (concentration finale dans le puits).
Les cellules T humaines ont été isolées à partir de cellules mononuclées de sang de deux donneurs sur Ficoll Paque plus (selon le protocole du fabricant). Les cellules CD4+ sont isolées par tri positif (Kit Miltenyi Biotec (CD4) et colonne LS) et remises en suspension dans du milieu de culture RPMI (Sigma Aldrich : L-Glutamine et sérum foetal bovin à 10 %) additionné de […] de streptomycine et 100 U/mL de pénicilline.
Les Lymphocytes en suspension sont répartis dans des puits de microplaques. […]
La quantité de cytokine IL17A, IFN gamma, IL22, TNF alpha et IL6 sécrétée dans le surnageant de culture des lymphocytes est ensuite mesurée par la méthode Multiplex Immunoassays (tel que notamment décrit dans Jager et al. Clin. Diagn. Lab. Immunol. 2003, 10(1), 133-139).

Compound | CMB [2] | CMI [2] | CMB (DMSO dilution) [2] | CMI (DMSO dilution) [2] | also measured
CC1=C(O)C(=O)C=C2C1=CC=C1[C@@]2(C)CC[C@@]2(C)[C@@H]3C[C@](C)(C(=O)O)CC[C@]3(C)CC[C@]12C [Célastrol] | 0,59 µg/ml | 0,29 µg/ml | 0,04% | 0,01% | inhibition de l'expression du marqueur MMP9 ([1]; at 30 ng/ml): ~40%; expression des marqueurs IL-8, DEFBA4, S100A7, IL-36 gamma et MMP9 ([3]; 10, 30 and 100 ng/mL, 24h stimulation): inhibition claire, significative et dose dépendante
CC(C)(C)c1nc2c3ccc(F)cc3c3c(=O)[nH]ccc3c2[nH]1 [inhibiteur JAK, JAK Inhibitor I] | – | – | – | – | augmentation de la sécrétion de MMP-9 ([1]; 10 µM): 60%; inhibition at 10 µM ([1]; 10 µM, read-out: inhibition de la sécrétion d'IL-8): 69%; inhibition at 10 µM ([1]; 10 µM, read-out: inhibition de la sécrétion de β-défensine-2): 82%; expression de l'IL-36 gamma et de la MMP9 ([3]; 10 µM): n'inhibe ni l'IL-36 gamma ni la MMP9; expression d'IL8, de DEFB4A et de S100A7 ([3]; 10 µM, versus negative control): diminution de l'expression
CC1=C(O)C(=O)C=C2C1=CC=C1[C@@]2(C)CC[C@@]2(C)[C@@H]3C[C@@H](C)C(=O)C[C@]3(C)CC[C@]12C [Tingénine A] | 2,34 µg/ml | 1,17 µg/ml | 0,08% | 0,08% | –
CC1=C(O)C(=O)C=C2C1=CC=C1[C@@]2(C)CC[C@@]2(C)[C@@H]3C[C@@H](C)C(=O)[C@@H](O)[C@]3(C)CC[C@]12C [Tingénine B, 22 béta-Hydroxy-tingénone] | 1,17 µg/ml | 0,59 µg/ml | 0,08% | 0,04% | activité anti S. aureus, fois supérieure à celle de la Tingénine A ([2]; ratio versus Tingénine A): 2-4 fois
C[C@@H]1C[C@H]2[C@@H]3CCC4=CC(=O)C=C[C@]4(C)[C@@]3(F)[C@@H](O)C[C@]2(C)[C@@]1(O)C(=O)CO [dexaméthasone] | – | – | – | – | surexpression des cytokines IL-17A, IFN gamma, IL-22, TNF alpha et IL-6 [4]: inhibe la surexpression de toutes les cytokines
